29 molecules from US10526311B2 (ASTEX THERAPEUTICS LIMITED, priority 2015, dated 2020) can be followed below.

Structures are written as SMILES. Like-named read-outs stand apart in the source and are kept apart here.

For test [1], the target named is MDM2-p53 interaction (in vitro translated MDM2, biotinylated IP3 peptide) (Homo sapiens, UniProt Q00987). Briefly: MDM2-p53 interaction 96-well plate binding assay (ELISA). Conditions: for inhibition at 0.03 µM: @ 0.030 μM.
Description: The ELISA assay was performed in streptavidin coated plates which were preincubated with 200 μl per well of 1 μg ml^−1 biotinylated IP3 peptide. The plates were ready to use for MDM2 binding after washing the plate with PBS.
The unbound secondary antibody was removed by washing three times with TBS-Tween. The bound HRP activity was measured by enhanced chemiluminesence (ECL™, Amersham Biosciences) using the oxidation of the diacylhydrazide substrate, luminol, to generate a quantifiable light signal. The percentage of MDM2 inhibition at a given concentration is calculated as the [1−(RLU detected in the compound treated sample−RLU negative DMSO control)÷(RLU of DMSO positive and negative controls)]×100 or as the (RLU detected in the compound treated sample÷RLU of DMSO controls)×100. The IC50 was calculated using a plot of % MDM2 inhibition vs concentration and is the average of two or three independent experiments.
The subject of the next test is SJSA-1. Briefly: Protocol B: SJSA-1 CellTiter-Glo cell viability. Conditions: for SJSA1 (Protocol B) % at concentration: SJSA-1, Protocol B, at 10 μM. In general terms: In ATP-based viability assays light output follows the ATP content of the culture.
Where [2] appears, read: @ 0.30 μM, read-out: MDM2 % @ concentration.
Setting [3] is: @ 0.10 μM, read-out: MDM2 % @ concentration.
[4] abbreviates: @ 0.0010 μM, read-out: MDM2 % @ concentration.
The mark [5] stands for this setting: read-out: MDM2 % @ concentration.
[6] abbreviates: Homo sapiens, SJSA-1, 72 h, read-out: SJSA1 IC50 (Protocol B), SJSA-1 cells, CellTiter-Glo, 72 hrs.
Setting [7] is: Homo sapiens, SJSA-1, 72 h, read-out: SJSA1 IC50 (μM) (Protocol B), SJSA-1, Protocol B (CellTiter-Glo), 72 hrs.

Sequence of MDM2-p53 interaction (in vitro translated MDM2, biotinylated IP3 peptide) (Q00987 whole entry): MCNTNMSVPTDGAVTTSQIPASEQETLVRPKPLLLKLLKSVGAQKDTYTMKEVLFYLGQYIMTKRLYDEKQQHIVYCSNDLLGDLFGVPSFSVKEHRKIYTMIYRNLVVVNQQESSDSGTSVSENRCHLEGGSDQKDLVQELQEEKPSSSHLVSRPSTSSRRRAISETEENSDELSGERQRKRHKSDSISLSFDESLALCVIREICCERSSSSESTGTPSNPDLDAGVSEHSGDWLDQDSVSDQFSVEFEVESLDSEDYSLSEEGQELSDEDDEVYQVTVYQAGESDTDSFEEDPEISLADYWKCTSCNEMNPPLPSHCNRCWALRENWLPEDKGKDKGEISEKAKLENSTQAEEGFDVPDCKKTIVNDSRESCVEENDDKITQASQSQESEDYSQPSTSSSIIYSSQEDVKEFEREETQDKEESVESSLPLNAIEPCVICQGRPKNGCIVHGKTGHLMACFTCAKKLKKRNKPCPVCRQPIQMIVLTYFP

Turning to `CO[C@]1(c2ccc(Cl)cc2)c2ccc(C(C)(O)CN3CCNC3=O)cc2C(=O)N1Cc1ccc(Cl)cn1` (single isomer, unassigned) [Example 157], in test [1] (setting [2]), the inhibition at 0.3 µM turned out to be 39%.

As for `CO[C@]1(c2ccc(Cl)cc2)c2ccc(C(C)(O)CN3CCNC3=O)cc2C(=O)N1Cc1ccc(Cl)cn1` (single isomer, unassigned) [Example 158], in test [1] (setting [3]), the inhibition at 0.1 µM worked out at 57%. In the case of `CO[C@]1(c2ccc(Cl)cc2)c2c(F)cc(C(C)(O)C3CCN(C(=O)CO)CC3)cc2C(=O)N1Cc1ccc(Cl)cn1` (single isomer, unassigned) [Example 296], the inhibition at 0.001 µM in test [1] (setting [4]) worked out at 62%. As for `CO[C@]1(c2ccc(Cl)cc2)c2ccc(C(C)(O)CN3CCOCC3=O)cc2C(=O)N1Cc1ccc(Cl)cn1` (single isomer, unassigned) [Example 327], the inhibition at 0.3 µM in test [1] (setting [2]) worked out at 42%. As to `CO[C@]1(c2ccc(Cl)cc2)c2ccc(C(C)(O)CN3CC(=O)NC3=O)cc2C(=O)N1Cc1ccc(Cl)cn1` (single isomer, unassigned) [Example 330], the “MDM2 % @ concentration” value in test [1] (@ 0.30 μM) turned out to be 36% @ 0.30.

For `Cn1cc(C(C)(O)c2cc(F)c3c(c2)C(=O)N(Cc2ncc(F)cc2F)[C@@]3(OCC2(O)CC2)c2ccc(Cl)cc2)cn1` (single isomer, unassigned) [Example 350], in test [1] (setting [5]), the inhibition at 0.03 µM turned out to be 54%.

For `Cn1cc(C(C)(O)c2cc(F)c3c(c2)C(=O)N(Cc2ncc(F)cc2F)[C@@]3(OCC2(O)CC2)c2ccc(Cl)cc2)cn1` (single isomer, unassigned) [Example 351], the inhibition at 0.1 µM in test [1] (setting [3]) amounted to 25%. Take `CCC(O)(c1cc(F)c2c(c1)C(=O)N(Cc1ccc(C#N)cn1)[C@@]2(O[C@H]1CCOC1)c1ccc(Cl)cc1)c1cnn(C)c1` (single isomer, unassigned) [Example 358]: the inhibition at 0.001 µM in test [1] (setting [4]) is 74%. For the molecule `CCC(O)(c1cc(F)c2c(c1)C(=O)N(Cc1ccc(C#N)cn1)[C@@]2(O[C@H]1CCOC1)c1ccc(Cl)cc1)c1cnn(C)c1` (single isomer, unassigned) [Example 359], the inhibition at 0.1 µM in test [1] (setting [3]) was found to be 50%.

With `Cn1cc(C(C)(O)c2cc(F)c3c(c2)C(=O)N(Cc2ccc(Cl)c[n+]2[O-])[C@@]3(OCC2(CO)CC2)c2ccc(Cl)cc2)cn1` (single isomer, unassigned) [Example 407], the inhibition at 0.001 µM in test [1] (setting [4]) worked out at 62%. Besides, the IC50 in the test with SJSA-1 (setting [6]) is 0.58 µM. With `CCC(O)(c1cc(F)c2c(c1)C(=O)N(Cc1ccc(C#N)cn1)[C@@]2(OCCOC)c1ccc(Cl)cc1)c1cn(C)cn1` (single isomer, unassigned) [Example 429], the inhibition at 0.1 µM in test [1] (setting [3]) turned out to be 65%.

Take `CCC(O)(c1cc(F)c2c(c1)C(=O)N(Cc1ccc(C#N)cn1)[C@@]2(O[C@H]1CCOC1)c1ccc(Cl)cc1)C1(F)CCOCC1` (single isomer, unassigned) [Example 445]: the “MDM2 % @ concentration” value in test [1] (@ 0.0010 μM) is 43% @ 0.0010. For the same molecule, the inhibition at 0.1 µM in test [1] (read-out: MDM2 % @ concentration, @ 0.10 μM) stood at 56%. With `CO[C@]1(c2ccc(Cl)cc2)c2c(F)cc(C(C)(O)c3cnn(C4CN(C(=O)OC(C)(C)C)C4)c3)cc2C(=O)N1Cc1ccc(Cl)cn1` (single isomer, unassigned) [Example 457], in test [1] (setting [2]), the inhibition at 0.3 µM was determined as 53%.

For the molecule `CCC(O)(c1cc(F)c2c(c1)C(=O)N(Cc1ncc(C#N)cn1)[C@@]2(OCC1(C#N)CC1)c1ccc(Cl)cc1)c1cn(C)cn1` (single isomer, unassigned) [Example 463], the inhibition at 0.1 µM in test [1] (setting [3]) was 73%. Consider `CCCC(O)(c1cc(F)c2c(c1)C(=O)N(Cc1ccc(C#N)cn1)[C@@]2(O[C@H]1CCOC1)c1ccc(Cl)cc1)c1cn(C)cn1` (single isomer, unassigned) [Example 473], for which, in test [1] (setting [3]), the inhibition at 0.1 µM turned out to be 44%.

Consider `CCC(O)(c1cc(F)c2c(c1)C(=O)N(Cc1ncc(Cl)cc1O)[C@@]2(O[C@H]1C[C@@H](O)C1)c1ccc(Cl)cc1)c1cn(C)cn1` (single isomer, unassigned) [Example 488], for which, in test [1] (setting [3]), the inhibition at 0.1 µM is 56%.

With `CCC(O)(c1cc(F)c2c(c1)C(=O)N(Cc1ccc(C#N)cn1)[C@@]2(OC[C@@H](C)O)c1ccc(Cl)cc1)C1(F)CCOCC1` (single isomer, unassigned) [Example 498], in test [1] (setting [3]), the inhibition at 0.1 µM was determined as 32%. In the test on SJSA-1, the “SJSA1 (Protocol B) % at concentration” value was 96% at 10. With `CCC(O)(c1cc(F)c2c(c1)C(=O)N(Cc1ccc(C#N)cn1)[C@@]2(OCCO)c1ccc(Cl)cc1)C1(F)CCOCC1` (single isomer, unassigned) [Example 500], the inhibition at 0.1 µM in test [1] (setting [3]) was 21%. The “SJSA1 (Protocol B) % at concentration” value in the test with SJSA-1 amounted to 16% at 10.

As to `CCC(O)(c1cc(F)c2c(c1)C(=O)N(Cc1ccc(C#N)cn1)[C@@]2(O[C@H]1C[C@@H](O)C1)c1ccc(Cl)cc1)[C@H]1CC[C@H](O)CC1` (single isomer, unassigned) [Example 520], in test [1] (setting [5]), the inhibition at 0.03 µM stood at 32%. The IC50 in the test on SJSA-1 (read-out: SJSA1 IC50 (μM) (Protocol B), SJSA-1, Protocol B (CellTiter-Glo), 72 hrs) is 3.9 µM. On to `CN1CCC(C(C)(O)c2cc(F)c3c(c2)C(=O)N(Cc2ccc(Cl)cn2)[C@@]3(OCC2(CO)CC2)c2ccc(Cl)cc2)CC1` (single isomer, unassigned) [Example 555], for which, in test [1] (setting [4]), the inhibition at 0.001 µM was determined as 55%. Besides, the IC50 in the test on SJSA-1 (setting [7]) turned out to be 0.079 µM. In test [1], `C[C@@H](c1ccc(Cl)cn1)N1C(=O)c2cc(C(C)(C)O)cc(F)c2[C@]1(OCC1(C(N)=O)CC1)c1ccc(Cl)cc1` [Example 70, 1-({[(1R)-1-(4-chlorophenyl)-2-[(1S)-1-(5-chloropyridin-2-yl)ethyl]-7-fluoro-5-(2-hydroxypropan-2-yl)-3-oxo-2,3-dihydro-1H-isoindol-1-yl]oxy}methyl)cyclopropane-1-carboxamide] returned an IC50 of 3.2 nM. The molecule `C[C@H](c1ccc(Cl)cn1)N1C(=O)c2cc(C(C)(C)O)cc(F)c2[C@]1(OCC1(C(N)=O)CC1)c1ccc(Cl)cc1` [Example 71, 1-({[(1R)-1-(4-chlorophenyl)-2-[(1R)-1-(5-chloropyridin-2-yl)ethyl]-7-fluoro-5-(2-hydroxypropan-2-yl)-3-oxo-2,3-dihydro-1H-isoindol-1-yl]oxy}methyl)cyclopropane-1-carboxamide] returned an IC50 in test [1] of 82 nM. As to `CO[C@]1(c2ccc(Cl)cc2)c2ccc(C(C)(O)C(=O)NCCN(C)C)cc2C(=O)N1Cc1ccc(Cl)cn1` (stereo partly drawn) [Example 149, 2-[(1R)-1-(4-Chlorophenyl)-2-[(5-chloropyridin-2-yl)methyl]-1-methoxy-3-oxo-2,3-dihydro-1H-isoindol-5-yl]-N-[2-(dimethylamino)ethyl]-2-hydroxypropanamide], the inhibition at 1 µM in test [1] (@ 1.0 μM, read-out: MDM2 % @ concentration) amounted to 53%.

As for `CO[C@]1(c2ccc(Cl)cc2)c2ccc(C(C)(O)C(=O)NCCN(C)C)cc2C(=O)N1Cc1ccc(Cl)cn1` (stereo partly drawn) [Example 150, 2-[(1R)-1-(4-Chlorophenyl)-2-[(5-chloropyridin-2-yl)methyl]-1-methoxy-3-oxo-2,3-dihydro-1H-isoindol-5-yl]-N-[2-(dimethylamino)ethyl]-2-hydroxypropanamide], the inhibition at 0.1 µM in test [1] (setting [3]) was 49%. Turning to `COc1ccc(CN2C(=O)c3cc(C(C)(O)c4cnn(C)c4)cc(F)c3[C@]2(OCC2(O)CC2)c2ccc(Cl)cc2)nc1` (stereo partly drawn) [Example 228, (3R)-3-(4-chlorophenyl)-4-fluoro-6-[1-hydroxy-1-(1-methyl-1H-pyrazol-4-yl)ethyl]-3-[(1-hydroxycyclopropyl)methoxy]-2-[(5-methoxypyridin-2-yl)methyl]-2,3-dihydro-1H-isoindol-1-one], the inhibition at 0.01 µM in test [1] (@ 0.010 μM, read-out: MDM2 % @ concentration) turned out to be 61%. `CC(C)(O)c1cc(F)c2c(c1)C(=O)N(Cc1ccc(Cl)cn1)[C@@]2(OCC1(CNCCO)CC1)c1ccc(Cl)cc1` [Example 326, (3R)-3-(4-chlorophenyl)-2-[(5-chloropyridin-2-yl)methyl]-4-fluoro-3-[(1-{[(2-hydroxyethyl)amino]methyl}cyclopropyl)methoxy]-6-(2-hydroxypropan-2-yl)-2,3-dihydro-1H-isoindol-1-one]: the inhibition at 0.03 µM in test [1] (setting [5]) came to 50%. Also, the IC50 with SJSA-1 (setting [6]) was 2 µM. In the case of `CC(C)(O)c1cc(F)c2c(c1)C(=O)N([C@H](c1ccc(Cl)cn1)C(O)CO)[C@@]2(OCC1(O)CC1)c1ccc(Cl)cc1` (stereo partly drawn) [Example 331, (3R)-3-(4-Chlorophenyl)-2-[(1R)-1-(5-chloropyridin-2-yl)-2,3-dihydroxypropyl]-4-fluoro-3-[(1-hydroxycyclopropyl)methoxy]-6-(2-hydroxypropan-2-yl)-2,3-dihydro-1H-isoindol-1-one], the inhibition at 0.03 µM in test [1] (setting [5]) was 49%. As to `COc1ccc(CN2C(=O)c3cc(C(C)(O)c4cnn(C)c4)cc(F)c3[C@]2(OCC2(O)CC2)c2ccc(Cl)cc2)nc1` (stereo partly drawn) [Example 347, (3R)-3-(4-chlorophenyl)-4-fluoro-6-[1-hydroxy-1-(1-methyl-1H-pyrazol-4-yl)ethyl]-3-[(1-hydroxycyclopropyl)methoxy]-2-[(5-methoxypyridin-2-yl)methyl]-2,3-dihydro-1H-isoindol-1-one], the inhibition at 0.1 µM in test [1] (setting [3]) is 63%. As to `[2H]C([2H])(O)C([2H])([2H])O[C@]1(c2ccc(Cl)cc2)c2c(F)cc(C(O)(CC)C3(F)CCN(C)CC3)cc2C(=O)N1Cc1ncc(Cl)cn1` (stereo partly drawn) [Example 580, (3R)-3-(4-chlorophenyl)-2-[(5-chloropyrimidin-2-yl)methyl]-4-fluoro-6-[1-(4-fluoro-1-methylpiperidin-4-yl)-1-hydroxypropyl]-3-[2-hydroxy(1,1,2,2-tetradeutero)ethoxy]-2,3-dihydro-1H-isoindol-1-one], the IC50 in the test on SJSA-1 (setting [7]) came to 0.014 µM.

As usually defined, the IC50 is the concentration that inhibits the measured activity by half.
